Results published in ChEMBL document CHEMBL4507262, “Data for DCP probe A-1596586” (2021).

Assays:
[1] = target: LIM domain kinase 2 (Homo sapiens) (UniProt P53671); settings: Compound concentration 1000.0 nM
[2] = target: RAC-alpha serine/threonine-protein kinase (Homo sapiens) (UniProt P31749); settings: Compound concentration 1000.0 nM
[3] = system: Mast/stem cell growth factor receptor Kit (Homo sapiens), P10721 [V559D,T670I]; settings: Compound concentration 1000.0 nM
[4] = target: Casein kinase I isoform gamma-3 (Homo sapiens) (UniProt Q9Y6M4); settings: Compound concentration 1000.0 nM
[5] = target: Mitogen-activated protein kinase 3 (Homo sapiens) (UniProt P27361); settings: Compound concentration 1000.0 nM
[6] = target: Mitogen-activated protein kinase kinase kinase 5 (Homo sapiens) (UniProt Q99683); settings: Compound concentration 1000.0 nM
[7] = target: Mitogen-activated protein kinase 10 (Homo sapiens) (UniProt P53779); settings: Compound concentration 1000.0 nM
[8] = target: Tyrosine-protein kinase CSK (Homo sapiens) (UniProt P41240); settings: Compound concentration 1000.0 nM
[9] = target: Dual specificity tyrosine-phosphorylation-regulated kinase 2 (Homo sapiens) (UniProt Q92630); settings: Compound concentration 1000.0 nM
[10] = system: Mast/stem cell growth factor receptor Kit (Homo sapiens), P10721 [V559D,V654A]; settings: Compound concentration 1000.0 nM
[11] = target: Serine/threonine-protein kinase PLK4 (Homo sapiens) (UniProt O00444); settings: Compound concentration 1000.0 nM
[12] = target: T1, Muscarinic acetylcholine receptor M5 (Homo sapiens) (UniProt P08912); assay: M5 (h) Eurofins-Cerep binding assay; parameters: ligand concentration 0.3 nM; settings: filed as antagonist, Compound concentration 10.0 uM
T1 sequence (whole entry): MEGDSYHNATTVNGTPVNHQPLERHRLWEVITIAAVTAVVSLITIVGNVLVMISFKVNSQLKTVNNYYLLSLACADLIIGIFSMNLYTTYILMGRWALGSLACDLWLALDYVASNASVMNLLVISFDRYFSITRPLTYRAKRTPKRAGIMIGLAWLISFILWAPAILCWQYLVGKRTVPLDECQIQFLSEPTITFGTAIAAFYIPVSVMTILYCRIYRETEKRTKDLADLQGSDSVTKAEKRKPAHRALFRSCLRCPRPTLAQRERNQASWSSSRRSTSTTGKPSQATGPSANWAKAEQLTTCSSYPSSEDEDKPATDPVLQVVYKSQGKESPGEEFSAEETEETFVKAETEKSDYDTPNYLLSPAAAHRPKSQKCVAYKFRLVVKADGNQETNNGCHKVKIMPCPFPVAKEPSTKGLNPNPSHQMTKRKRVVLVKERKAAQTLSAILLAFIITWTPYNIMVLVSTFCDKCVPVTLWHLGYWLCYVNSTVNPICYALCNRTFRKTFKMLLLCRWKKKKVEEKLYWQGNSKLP

[13] = target: Platelet-derived growth factor receptor beta (Homo sapiens) (UniProt P09619); settings: Compound concentration 1000.0 nM
[14] = target: Hepatocyte growth factor receptor (Homo sapiens) (UniProt P08581); settings: Compound concentration 1000.0 nM
[15] = target: 5-hydroxytryptamine receptor 1D (Homo sapiens) (UniProt P28221); settings: Compound concentration 10.0 uM
[16] = target: T2, Alpha-2A adrenergic receptor (Homo sapiens) (UniProt P08913); assay: Alpha2A (h) Eurofins-Cerep binding assay; parameters: ligand concentration 1 nM; settings: filed as antagonist, Compound concentration 10.0 uM
T2 sequence (whole entry): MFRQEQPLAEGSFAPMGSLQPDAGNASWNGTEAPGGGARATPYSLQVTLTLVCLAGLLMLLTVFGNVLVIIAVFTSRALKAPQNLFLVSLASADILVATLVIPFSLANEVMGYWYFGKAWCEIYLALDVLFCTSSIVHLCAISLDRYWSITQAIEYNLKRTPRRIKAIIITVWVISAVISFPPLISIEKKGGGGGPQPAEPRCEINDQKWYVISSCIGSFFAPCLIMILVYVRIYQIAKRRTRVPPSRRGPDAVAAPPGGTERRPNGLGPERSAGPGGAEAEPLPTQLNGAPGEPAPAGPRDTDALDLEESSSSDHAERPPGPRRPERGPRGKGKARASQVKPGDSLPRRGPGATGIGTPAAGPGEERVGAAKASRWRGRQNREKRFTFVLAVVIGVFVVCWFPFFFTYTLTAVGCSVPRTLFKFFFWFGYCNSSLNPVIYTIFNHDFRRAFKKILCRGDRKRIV

[17] = target: Serine/threonine-protein kinase PAK 3 (Homo sapiens) (UniProt O75914); settings: Compound concentration 1000.0 nM
[18] = target: Ephrin type-A receptor 1 (Homo sapiens) (UniProt P21709); settings: Compound concentration 1000.0 nM
[19] = target: Tyrosine-protein kinase HCK (Homo sapiens) (UniProt P08631); settings: Compound concentration 1000.0 nM
[20] = target: 5'-AMP-activated protein kinase catalytic subunit alpha-2 (Homo sapiens) (UniProt P54646); settings: Compound concentration 1000.0 nM
[21] = target: Myosin light chain kinase 2, skeletal/cardiac muscle (Homo sapiens) (UniProt Q9H1R3); settings: Compound concentration 1000.0 nM
[22] = target: Tyrosine-protein kinase JAK1 (Homo sapiens) (UniProt P23458); settings: Compound concentration 1000.0 nM
[23] = target: Cyclin-dependent kinase-like 3 (Homo sapiens) (UniProt Q8IVW4); settings: Compound concentration 1000.0 nM
[24] = target: Homeodomain-interacting protein kinase 1 (Homo sapiens) (UniProt Q86Z02); settings: Compound concentration 1000.0 nM
[25] = target: Casein kinase I isoform alpha-like (Homo sapiens) (UniProt Q8N752); settings: Compound concentration 1000.0 nM
[26] = system: Epidermal growth factor receptor (Homo sapiens), P00533 [T790M]; settings: Compound concentration 1000.0 nM
[27] = target: Testis-specific serine/threonine-protein kinase 1 (Homo sapiens) (UniProt Q9BXA7); settings: Compound concentration 1000.0 nM
[28] = target: Tyrosine-protein kinase Srms (Homo sapiens) (UniProt Q9H3Y6); settings: Compound concentration 1000.0 nM
[29] = target: Serine/threonine-protein kinase D2 (Homo sapiens) (UniProt Q9BZL6); settings: Compound concentration 1000.0 nM
[30] = target: MAP/microtubule affinity-regulating kinase 4 (Homo sapiens) (UniProt Q96L34); settings: Compound concentration 1000.0 nM
[31] = target: Serine/threonine-protein kinase PLK3 (Homo sapiens) (UniProt Q9H4B4); settings: Compound concentration 1000.0 nM
[32] = target: Mitogen-activated protein kinase 14 (Homo sapiens) (UniProt Q16539); settings: Compound concentration 1000.0 nM
Sequence of Mitogen-activated protein kinase 14 (Homo sapiens) (Q16539 whole entry): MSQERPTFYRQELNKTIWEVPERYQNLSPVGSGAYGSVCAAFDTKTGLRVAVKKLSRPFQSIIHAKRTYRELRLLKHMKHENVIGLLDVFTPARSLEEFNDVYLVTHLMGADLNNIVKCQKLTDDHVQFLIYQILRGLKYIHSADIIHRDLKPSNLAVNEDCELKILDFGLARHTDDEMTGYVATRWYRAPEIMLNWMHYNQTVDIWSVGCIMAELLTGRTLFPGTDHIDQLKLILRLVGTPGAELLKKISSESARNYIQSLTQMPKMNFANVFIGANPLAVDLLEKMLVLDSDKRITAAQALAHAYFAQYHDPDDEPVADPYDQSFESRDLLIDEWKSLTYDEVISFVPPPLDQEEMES

Sequence of LIM domain kinase 2 (Homo sapiens) (P53671 whole entry, looked up, the tested form may be a part): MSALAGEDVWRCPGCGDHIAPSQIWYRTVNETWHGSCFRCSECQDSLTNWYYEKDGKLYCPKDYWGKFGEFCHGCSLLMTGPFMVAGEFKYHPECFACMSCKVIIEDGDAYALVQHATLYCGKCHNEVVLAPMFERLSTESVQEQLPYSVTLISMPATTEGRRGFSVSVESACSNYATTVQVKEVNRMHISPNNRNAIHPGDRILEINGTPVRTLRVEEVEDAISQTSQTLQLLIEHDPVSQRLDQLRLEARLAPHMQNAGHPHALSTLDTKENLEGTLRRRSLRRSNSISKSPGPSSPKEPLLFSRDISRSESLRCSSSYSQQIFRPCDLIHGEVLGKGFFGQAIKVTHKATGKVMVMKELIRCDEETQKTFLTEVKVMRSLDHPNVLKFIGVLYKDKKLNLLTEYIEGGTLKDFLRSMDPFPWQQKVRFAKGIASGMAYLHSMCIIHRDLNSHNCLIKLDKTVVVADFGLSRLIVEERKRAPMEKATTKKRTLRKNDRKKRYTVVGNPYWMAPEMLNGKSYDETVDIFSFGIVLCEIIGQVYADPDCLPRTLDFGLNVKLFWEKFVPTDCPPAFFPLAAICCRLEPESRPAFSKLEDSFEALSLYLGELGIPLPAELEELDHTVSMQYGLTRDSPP
Sequence of Platelet-derived growth factor receptor beta (Homo sapiens) (P09619 whole entry): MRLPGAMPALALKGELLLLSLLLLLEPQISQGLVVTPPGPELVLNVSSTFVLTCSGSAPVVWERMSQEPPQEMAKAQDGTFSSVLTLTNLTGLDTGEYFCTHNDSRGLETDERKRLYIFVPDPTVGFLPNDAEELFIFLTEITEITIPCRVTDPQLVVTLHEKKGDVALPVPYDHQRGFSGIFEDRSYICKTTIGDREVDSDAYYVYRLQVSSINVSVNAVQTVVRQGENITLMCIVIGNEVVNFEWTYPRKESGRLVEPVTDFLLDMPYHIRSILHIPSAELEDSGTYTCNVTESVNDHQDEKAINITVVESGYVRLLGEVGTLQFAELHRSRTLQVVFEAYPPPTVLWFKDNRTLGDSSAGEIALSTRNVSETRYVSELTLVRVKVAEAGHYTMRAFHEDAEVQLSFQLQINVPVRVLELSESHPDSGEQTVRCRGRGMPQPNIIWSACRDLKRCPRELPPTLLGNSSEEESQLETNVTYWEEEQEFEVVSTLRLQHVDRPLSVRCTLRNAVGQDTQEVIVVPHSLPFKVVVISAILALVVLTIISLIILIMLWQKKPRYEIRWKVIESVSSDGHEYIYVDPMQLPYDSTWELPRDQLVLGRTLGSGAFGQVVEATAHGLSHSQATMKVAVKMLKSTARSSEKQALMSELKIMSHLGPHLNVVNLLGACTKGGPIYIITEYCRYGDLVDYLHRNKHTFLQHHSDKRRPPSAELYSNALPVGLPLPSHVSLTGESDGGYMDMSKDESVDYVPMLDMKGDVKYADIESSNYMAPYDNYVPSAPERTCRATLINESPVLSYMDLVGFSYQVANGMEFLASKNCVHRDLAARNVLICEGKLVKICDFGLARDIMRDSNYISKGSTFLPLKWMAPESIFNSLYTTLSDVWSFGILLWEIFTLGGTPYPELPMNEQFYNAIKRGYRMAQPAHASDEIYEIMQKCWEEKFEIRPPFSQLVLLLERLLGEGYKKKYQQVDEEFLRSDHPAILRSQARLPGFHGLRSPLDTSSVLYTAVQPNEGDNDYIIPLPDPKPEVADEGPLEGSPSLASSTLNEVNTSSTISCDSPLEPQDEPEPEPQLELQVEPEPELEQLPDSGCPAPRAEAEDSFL
Sequence of Tyrosine-protein kinase JAK1 (Homo sapiens) (P23458 whole entry): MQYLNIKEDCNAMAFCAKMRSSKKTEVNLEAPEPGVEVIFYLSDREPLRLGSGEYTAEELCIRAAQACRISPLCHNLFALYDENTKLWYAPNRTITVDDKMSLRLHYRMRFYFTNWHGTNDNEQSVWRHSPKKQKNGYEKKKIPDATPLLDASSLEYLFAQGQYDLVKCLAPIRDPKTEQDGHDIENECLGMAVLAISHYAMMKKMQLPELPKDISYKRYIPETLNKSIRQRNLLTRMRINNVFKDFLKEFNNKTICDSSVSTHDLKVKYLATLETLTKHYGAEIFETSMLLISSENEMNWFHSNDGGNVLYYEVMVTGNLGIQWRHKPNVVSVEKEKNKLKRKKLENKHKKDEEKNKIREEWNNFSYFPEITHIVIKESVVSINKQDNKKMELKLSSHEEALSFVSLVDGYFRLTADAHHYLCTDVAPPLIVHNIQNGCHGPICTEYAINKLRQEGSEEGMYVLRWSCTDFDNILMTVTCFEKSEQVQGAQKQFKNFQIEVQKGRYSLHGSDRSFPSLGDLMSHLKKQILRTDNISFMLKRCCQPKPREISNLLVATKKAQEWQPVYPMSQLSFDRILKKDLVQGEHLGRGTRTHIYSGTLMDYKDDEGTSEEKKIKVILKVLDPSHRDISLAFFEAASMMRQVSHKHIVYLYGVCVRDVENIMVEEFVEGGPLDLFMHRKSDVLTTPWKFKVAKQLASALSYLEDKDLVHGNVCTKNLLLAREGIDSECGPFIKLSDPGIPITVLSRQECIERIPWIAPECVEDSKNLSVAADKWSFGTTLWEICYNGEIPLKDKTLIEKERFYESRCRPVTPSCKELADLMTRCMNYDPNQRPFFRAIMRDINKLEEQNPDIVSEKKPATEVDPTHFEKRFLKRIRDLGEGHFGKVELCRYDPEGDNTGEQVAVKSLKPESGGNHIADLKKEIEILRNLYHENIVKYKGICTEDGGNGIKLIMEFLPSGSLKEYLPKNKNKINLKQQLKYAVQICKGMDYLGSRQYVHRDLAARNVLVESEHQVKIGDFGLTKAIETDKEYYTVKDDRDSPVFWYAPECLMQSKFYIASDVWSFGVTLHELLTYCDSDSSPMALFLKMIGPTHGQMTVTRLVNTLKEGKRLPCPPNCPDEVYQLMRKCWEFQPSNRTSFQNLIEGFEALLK
Sequence of Tyrosine-protein kinase Srms (Homo sapiens) (Q9H3Y6 whole entry): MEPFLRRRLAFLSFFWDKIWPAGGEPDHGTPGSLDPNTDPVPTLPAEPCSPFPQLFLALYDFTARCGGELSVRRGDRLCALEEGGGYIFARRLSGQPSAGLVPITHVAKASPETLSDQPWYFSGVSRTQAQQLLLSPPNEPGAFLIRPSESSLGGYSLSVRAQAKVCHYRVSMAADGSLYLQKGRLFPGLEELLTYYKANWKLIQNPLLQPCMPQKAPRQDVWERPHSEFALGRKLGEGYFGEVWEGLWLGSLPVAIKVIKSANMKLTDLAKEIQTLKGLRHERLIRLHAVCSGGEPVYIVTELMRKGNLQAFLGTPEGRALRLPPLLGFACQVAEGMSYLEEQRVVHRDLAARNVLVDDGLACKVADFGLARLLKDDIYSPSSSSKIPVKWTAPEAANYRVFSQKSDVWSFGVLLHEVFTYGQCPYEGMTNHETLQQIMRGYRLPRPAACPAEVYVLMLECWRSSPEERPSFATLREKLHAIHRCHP
Sequence of Tyrosine-protein kinase HCK (Homo sapiens) (P08631 2-526 limits assumed): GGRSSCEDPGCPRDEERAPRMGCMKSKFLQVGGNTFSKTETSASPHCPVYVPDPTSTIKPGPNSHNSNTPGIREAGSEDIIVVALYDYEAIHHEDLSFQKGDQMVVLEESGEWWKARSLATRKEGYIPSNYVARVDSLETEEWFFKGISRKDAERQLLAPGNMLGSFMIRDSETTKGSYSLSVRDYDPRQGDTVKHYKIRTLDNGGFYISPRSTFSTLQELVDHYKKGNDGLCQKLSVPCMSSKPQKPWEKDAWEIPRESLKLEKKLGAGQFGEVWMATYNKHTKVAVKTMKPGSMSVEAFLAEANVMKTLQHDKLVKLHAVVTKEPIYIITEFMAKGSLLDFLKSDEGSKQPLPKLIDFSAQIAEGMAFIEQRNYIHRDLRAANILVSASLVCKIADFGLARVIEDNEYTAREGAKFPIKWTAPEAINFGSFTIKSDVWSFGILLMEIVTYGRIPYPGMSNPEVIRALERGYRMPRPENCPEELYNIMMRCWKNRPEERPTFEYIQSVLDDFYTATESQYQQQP
Sequence of 5'-AMP-activated protein kinase catalytic subunit alpha-2 (Homo sapiens) (P54646 whole entry, looked up): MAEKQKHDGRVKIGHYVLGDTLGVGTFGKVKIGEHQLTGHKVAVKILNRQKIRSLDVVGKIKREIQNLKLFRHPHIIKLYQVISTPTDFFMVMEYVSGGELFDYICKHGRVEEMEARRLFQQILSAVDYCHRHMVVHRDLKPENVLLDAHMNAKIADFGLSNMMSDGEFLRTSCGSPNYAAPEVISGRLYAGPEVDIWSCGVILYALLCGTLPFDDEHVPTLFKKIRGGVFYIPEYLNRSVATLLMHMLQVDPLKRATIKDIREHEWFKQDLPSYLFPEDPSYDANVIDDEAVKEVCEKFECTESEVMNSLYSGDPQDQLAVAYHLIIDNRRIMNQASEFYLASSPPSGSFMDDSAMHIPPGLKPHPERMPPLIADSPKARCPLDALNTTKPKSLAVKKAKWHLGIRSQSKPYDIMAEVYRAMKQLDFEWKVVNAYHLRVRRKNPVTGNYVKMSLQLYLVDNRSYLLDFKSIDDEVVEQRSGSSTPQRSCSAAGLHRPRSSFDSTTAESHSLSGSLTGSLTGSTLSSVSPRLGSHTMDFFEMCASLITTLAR

COc1ccc2c(c1)O[C@@H](c1ccc(OC)c(OC)c1)C[C@H]2NC(=O)C1(c2ccc3c(c2)OC(F)(F)O3)CC1 [A-1596586]
residual activity [1]: 100%
residual activity [2]: 100%
residual activity [3]: 99%
residual activity [4]: 100%
residual activity [5]: 89%
residual activity [6]: 94%
residual activity [7]: 99%
residual activity [8]: 87%
residual activity [9]: 75%
residual activity [10]: 100%
residual activity [11]: 84%
% Inhibition of Control Specific Binding (Mean n=2) [12]: 35.7%
residual activity [13]: 100%
residual activity [14]: 100%
inhibition [15]: 4.36%
% Inhibition of Control Specific Binding (Mean n=2) [16]: 8.7%
residual activity [17]: 87%
residual activity [18]: 93%
residual activity [19]: 88%
residual activity [20]: 100%
residual activity [21]: 90%
residual activity [22]: 100%
residual activity [23]: 94%
residual activity [24]: 86%
residual activity [25]: 100%
residual activity [26]: 82%
residual activity [27]: 100%
residual activity [28]: 94%
residual activity [29]: 100%
residual activity [30]: 92%
residual activity [31]: 92%
residual activity [32]: 99%

COc1ccc2c(c1)O[C@H](c1ccc(OC)c(OC)c1)C[C@@H]2NC(=O)C1(c2ccc3c(c2)OC(F)(F)O3)CC1 [A-1596584]
residual activity [1]: 100%
residual activity [2]: 63%
residual activity [3]: 100%
residual activity [4]: 100%
residual activity [5]: 100%
residual activity [6]: 100%
residual activity [7]: 100%
residual activity [8]: 100%
residual activity [9]: 100%
residual activity [10]: 100%
residual activity [11]: 89%
% Inhibition of Control Specific Binding (Mean n=2) [12]: -0.7%
residual activity [13]: 100%
residual activity [14]: 87%
inhibition [15]: 6.1%
% Inhibition of Control Specific Binding (Mean n=2) [16]: 5.1%
residual activity [17]: 100%
residual activity [18]: 88%
residual activity [19]: 100%
residual activity [20]: 98%
residual activity [21]: 95%
residual activity [22]: 100%
residual activity [23]: 97%
residual activity [24]: 87%
residual activity [25]: 100%
residual activity [26]: 87%
residual activity [27]: 100%
residual activity [28]: 87%
residual activity [29]: 100%
residual activity [30]: 88%
residual activity [31]: 100%
residual activity [32]: 90%
